# Results taken from paper PMC6269873, “Substituted 3-Benzylcoumarins as Allosteric MEK1 Inhibitors: Design, Synthesis and Biological Evaluation as Antiviral Agents” (Molecules, 2013).
# Like-named read-outs stand apart in the source and are kept apart here.
# How the values were obtained:
# [1] = system: ERK pathway; experiment: cells; format: cell-based, Human; details: for IC50: Homo sapiens, HEK293
# Method: The effects of the inhibitors on the activation of ERK pathway were determined in TPA (12-O-tetradecanoylphorbol-13-acetate)-stimulated cells using the AP-1 luciferase reporter gene assay system. Activating protein-1 (AP-1) is the nuclear transcription factor which is a heterodimeric protein downstream of MAPK composed of dimers of the Fos and Jun proteins. The stable AP-1 dimers bind to DNA recognition elements (AP-1 response elements) and mediate transcriptional induction. AP-1 controls a number of cellular events including differentiation, proliferation and apoptosis. Simultaneously, the expression of AP-1 can be regulated in response to different extracellular stimuli, such as cytokines, growth factors, stress, and bacterial and viral infections. ERK pathway is the most important mediator which is closely related to these responses. Activation of ERK pathway causes induction of fos gene, and then the product heterodimerizes with the Jun protein to form the AP-1 dimers. These newly formed heterodimers can enhance the expression of c-jun through AP-1 binding sites in the c-jun promoter. TPA can increase levels of AP-1 proteins through activation of the ERK pathway.
# 3.4.2. AP-1 Luciferase Reporter Gene Assay
# pAP1-Luc was constructed with pGL3-basic (Promega, Madison, WI. USA) and a fragment including the AP-1 response element (2× TRE) and T7 promoter. HEK 293 cells in 96-well plates were cultured at 5% CO2 at 37 °C in DMEM containing 10% FBS. When the confluence was up to 80%, cells were transinfected with pAP1-Luc using lipofectamine 2000 (Life Technologies, Carlsbad, CA. USA). At 24 h post transinfection, individual compounds with different concentrations (5, 10, 20, 30 μM) were added into cells using three wells for each concentration used. After incubation for 1 h, TPA (50 nM) was added. The cells were harvested after 4 h and luciferase activity was measured by using luciferase assay kit (Promega) with a luminometer.
# [2] = target: phosphorylated MEK1 (Homo sapiens, UniProt Q02750); experiment: MEK1 binding assay (HTRF, tracer displacement); details: for inhibition at 2 µM: read-out: % binding (2 µM); for inhibition at 20 µM: read-out: % binding (20 µM)
# phosphorylated MEK1, sequence (Q02750 whole entry): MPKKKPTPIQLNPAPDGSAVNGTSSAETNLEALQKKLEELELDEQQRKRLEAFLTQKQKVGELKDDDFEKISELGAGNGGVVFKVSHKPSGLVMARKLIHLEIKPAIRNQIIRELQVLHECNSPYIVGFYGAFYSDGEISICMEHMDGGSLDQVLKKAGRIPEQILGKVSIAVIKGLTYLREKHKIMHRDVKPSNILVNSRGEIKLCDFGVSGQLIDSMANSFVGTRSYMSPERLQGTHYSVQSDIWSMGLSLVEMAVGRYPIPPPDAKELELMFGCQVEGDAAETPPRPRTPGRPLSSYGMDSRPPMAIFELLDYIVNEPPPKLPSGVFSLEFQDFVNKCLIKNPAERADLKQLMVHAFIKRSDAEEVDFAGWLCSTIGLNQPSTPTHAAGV
# Method: The homogeneous time resolved fluorescence (HTRF) assay was performed on a Proxiplate-384 F plus solid back plate (Perkin Elmer, Waltham, MA. USA) with 5 nM GST tagged phosphorylated MEK1 (GST-MEK1), 2 nM europium-labeled anti-GST antibody (Eu-anti-GST), 20 nM kinase tracer 236 and test compound at a variety of concentrations. In the reaction mixture, GST-MEK1 forms a complex with the Eu-anti-GST and the tracer. Excitation of europium (the donor) using a 340-nm excitation filter results in energy transfer to the fluorophore of the tracer. This energy transfer is detected by an increase in the fluorescence emission of the tracer at 665 nm and a decrease in the fluorescence emission of europium at 615 nm. The FRET ratio was calculated by dividing the emission signal at 665 nm by the emission signal at 615 nm. A competitor compound such as a MEK inhibitor replaces the tracer from the complex and decreases the FRET ratio accordingly. The plate was incubated in dark at room temperature for 30 min before measuring the fluorescent emission of each well at 665 and 615 nm using a 340-nm excitation filter, 100-µs delay time, and 200-µs integration time, on a PHERAStar plate reader (BMG Labtech, Durham, NC, USA). […] Data shown as %Inhibition normalized to AZD6244 at 100 µM.
# [3] = HTRF binding to GST tagged phosphorylated MEK1, read-out: IC50
Compound,IC50 [1] [µM],melting point [°C],IC50 [2] [µM],inhibition at 2 µM [2] [%],inhibition at 20 µM [2] [%],"IC50 [2, 3] [µM]",inhibition of ERK pathway activation (in words) [1]
"Cc1c(Cc2ccccc2)c(=O)oc2cc(OC(=O)N(C)C)c(Cl)cc12 [Compound 14, 3-Benzyl-6-chloro-4-methyl-2-oxo-2H-chromen-7-yl dimethylcarbamate]",30.8 ± 1.4,156 to 157,0.307,66.3,80.8,,
"CC(=O)Oc1ccc2c(C)c(Cc3ccccc3)c(=O)oc2c1 [Compound 28, 3-Benzyl-4-methyl-2-oxo-2H-chromen-7-yl acetate]",37.6 ± 1.1,165 to 166,,72.2,96.5,0.52,
"CCc1c(Cc2ccccc2)c(=O)oc2cc(OC(C)=O)ccc12 [Compound 29, 3-Benzyl-4-ethyl-2-oxo-2H-chromen-7-yl acetate]",90.5 ± 1.83,123 to 125,,88.7,102,0.176,
"CC(=O)Oc1ccc2c(C)c(Cc3ccc(F)cc3)c(=O)oc2c1 [Compound 31, 3-(4-Fluorobenzyl)-4-methyl-2-oxo-2H-chromen-7-yl acetate]",15.7 ± 1.18,,,72.2,78.2,0.248,more efficiently than U0126
"CCC(=O)Oc1ccc2c(CC)c(Cc3ccccc3)c(=O)oc2c1 [Compound 36, 3-Benzyl-4-ethyl-2-oxo-2H-chromen-7-yl propionate]",49.8 ± 1.24,124,,81,87,0.391,
"CCC(=O)Oc1ccc2c(C)c(Cc3ccc(F)cc3)c(=O)oc2c1 [Compound 38, 3-(4-Fluorobenzyl)-4-methyl-2-oxo-2H-chromen-7-yl propionate]",38.1 ± 1.26,115 to 116,,75.7,90.8,0.19,
"CCCc1c(Cc2ccc(F)cc2)c(=O)oc2cc(OC(=O)CC)ccc12 [Compound 40, 3-(4-Fluorobenzyl)-2-oxo-4-propyl-2H-chromen-7-yl propionate]",87.5 ± 1.98,94 to 95,,72.2,78.5,0.176,
"CCCC(=O)Oc1ccc2c(C)c(Cc3ccccc3)c(=O)oc2c1 [Compound 42, 3-Benzyl-4-methyl-2-oxo-2H-chromen-7-yl butyrate]",88.7 ± 2.52,139 to 140,,53.8,68.4,0.353,
"CCCC(=O)Oc1ccc2c(CC)c(Cc3ccccc3)c(=O)oc2c1 [Compound 43, 3-Benzyl-4-ethyl-2-oxo-2H-chromen-7-yl butyrateen-7-yl propionate]",85.9 ± 1.46,102,,45,54.7,0.473,
"COc1ccc2cc(Cc3ccccc3)c(=O)oc2c1 [Compound 83, 3-Benzyl-7-methoxy-2H-chromen-2-one]",,102 to 103,,23,2.93,,
"COc1ccc2cc(Cc3ccc(F)cc3)c(=O)oc2c1 [Compound 84, 3-(4-Fluorobenzyl)-7-methoxy-2H-chromen-2-one]",,94 to 95,,17.6,15.4,,
"COc1ccc2cc(C(=O)c3ccccc3)c(=O)oc2c1 [Compound 86, 3-benzoyl-7-methoxycoumarin]",,149 to 150,,7.96,-8.83,,
"COc1ccc2c(C#N)c(C(=O)c3ccccc3)c(=O)oc2c1 [Compound 88, 3-Benzoyl-4-cyano-7-methoxycoumarin]",,175 to 176,,32.4,22.9,,
"COc1ccc2c(C(=O)O)c(C(=O)c3ccccc3)c(=O)oc2c1 [Compound 89, 3-Benzoyl-4-carboxy-7-methoxycoumarin]",,196 to 197,,16.5,6.34,,
